# According to US10251395B2, “Substituted furano-/thienocycloalkylamino-2-pyrimidine derivatives and use thereof for controlling undesired plant growth” (Bayer CropScience Aktiengesellschaft, priority 2015, dated 2019):
# Legend:
# [1] = system: Veronica persica; assay: Pre-emergence herbicidal effect; type: in vivo; settings: scored visually after 3 weeks
# Procedure, shortened: (§1)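 Sowing in sandy loam, covering with soil, then surface application of compound as aqueous suspension or emulsion (600 to 800 L/ha, 0.2% wetting agent). Greenhouse growth under good conditions; visual % damage scored at 3 weeks versus untreated pots.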
# [2] = system: Polygonum convolvulus; assay: Pre-emergence herbicidal effect; type: in vivo; settings: scored visually after 3 weeks
# Procedure, shortened: as §1
# [3] = system: Amaranthus retroflexus; assay: Pre-emergence herbicidal effect; type: in vivo; settings: scored visually after 3 weeks
# Procedure, shortened: as §1
# [4] = system: Viola tricolor; assay: Pre-emergence herbicidal effect; type: in vivo; settings: scored visually after 3 weeks
# Procedure, shortened: as §1
# [5] = system: Matricaria inodora; assay: Pre-emergence herbicidal effect; type: in vivo; settings: scored visually after 3 weeks
# Procedure, shortened: as §1
# [6] = system: Setaria viridis; assay: Pre-emergence herbicidal effect; type: in vivo; settings: scored visually after 3 weeks
# Procedure, shortened: as §1
# [7] = system: Stellaria media; assay: Pre-emergence herbicidal effect; type: in vivo; settings: scored visually after 3 weeks
# Procedure, shortened: as §1
# [8] = system: Echinochloa crus-galli; assay: Pre-emergence herbicidal effect; type: in vivo; settings: scored visually after 3 weeks
# Procedure, shortened: as §1
# [9] = system: Abutilon theophrasti; assay: Pre-emergence herbicidal effect; type: in vivo; settings: scored visually after 3 weeks
# Procedure, shortened: as §1
# [10] = system: Lolium multiflorum; assay: Post-emergence herbicidal effect; type: in vivo; settings: assessed visually after about 3 weeks vs untreated controls
# Procedure, shortened: (§2)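 Greenhouse post-emergence spray: one-leaf seedlings, sandy loam, aqueous WP/EC formulation with 0.2% wetting agent at 600–800 L/ha. Visual assessment after ~3 weeks, as % activity relative to untreated controls.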
# [11] = system: Alopecurus myosuroides; assay: Post-emergence herbicidal effect; type: in vivo; settings: assessed visually after about 3 weeks vs untreated controls
# Procedure, shortened: as §2
# [12] = system: Veronica persica; assay: Post-emergence herbicidal effect; type: in vivo; settings: assessed visually after about 3 weeks vs untreated controls
# Procedure, shortened: as §2
# [13] = system: Amaranthus retroflexus; assay: Post-emergence herbicidal effect; type: in vivo; settings: assessed visually after about 3 weeks vs untreated controls
# Procedure, shortened: as §2
# [14] = system: Viola tricolor; assay: Post-emergence herbicidal effect; type: in vivo; settings: assessed visually after about 3 weeks vs untreated controls
# Procedure, shortened: as §2
# [15] = system: Matricaria inodora; assay: Post-emergence herbicidal effect; type: in vivo; settings: 320 g/ha, assessed visually after about 3 weeks vs untreated controls
# Procedure, shortened: as §2
# [16] = system: Stellaria media; assay: Post-emergence herbicidal effect; type: in vivo; settings: assessed visually after about 3 weeks vs untreated controls
# Procedure, shortened: as §2
# [17] = system: Echinochloa crus-galli; assay: Post-emergence herbicidal effect; type: in vivo; settings: assessed visually after about 3 weeks vs untreated controls
# Procedure, shortened: as §2
# [18] = system: Abutilon theophrasti; assay: Post-emergence herbicidal effect; type: in vivo; settings: assessed visually after about 3 weeks vs untreated controls
# Procedure, shortened: as §2
# [19] = system: Cyperus esculentus; assay: Pre-emergence herbicidal effect; type: in vivo; settings: Dosage 320 g/ha, scored visually after 3 weeks
# Procedure, shortened: as §1
# [20] = system: Lolium multiflorum; assay: Pre-emergence herbicidal effect; type: in vivo; settings: Dosage 320 g/ha, scored visually after 3 weeks
# Procedure, shortened: as §1
# [21] = system: Alopecurus myosuroides; assay: Pre-emergence herbicidal effect; type: in vivo; settings: scored visually after 3 weeks
# Procedure, shortened: as §1
# [22] = system: Avena fatua; assay: Pre-emergence herbicidal effect; type: in vivo; settings: Dosage 320 g/ha, scored visually after 3 weeks
# Procedure, shortened: as §1
# [23] = logP (HCOOH); type: physicochemical; settings: HCOOH
# Source text: Table 2 (physicochemical characterization of selected synthesis examples)
# [24] = system: Polygonum convolvulus; assay: Post-emergence herbicidal effect; type: in vivo; settings: assessed visually after about 3 weeks vs untreated controls
# Procedure, shortened: as §2
# [25] = system: Ipomoea purpurea; assay: Post-emergence herbicidal effect; type: in vivo; settings: assessed visually after about 3 weeks vs untreated controls
# Procedure, shortened: as §2
# [26] = system: Setaria viridis; assay: Post-emergence herbicidal effect; type: in vivo; settings: assessed visually after about 3 weeks vs untreated controls
# Procedure, shortened: as §2
smiles,measurement,setting,value
Cc1cc2c(s1)CCCC2Nc1ncc2c(n1)CCCC2=O (racemic) [compound 9],VERPE pre-emergence efficacy (herbicidal activity),[1]; Dosage 80 g/ha,100%
same,VERPE pre-emergence efficacy (herbicidal activity),[1]; Dosage 320 g/ha,100%
same,POLCO pre-emergence efficacy (herbicidal activity),[2]; Dosage 80 g/ha,100%
same,POLCO pre-emergence efficacy (herbicidal activity),[2]; Dosage 320 g/ha,100%
same,AMARE pre-emergence efficacy (herbicidal activity),[3]; Dosage 80 g/ha,100%
same,AMARE pre-emergence efficacy (herbicidal activity),[3]; Dosage 320 g/ha,100%
same,VIOTR pre-emergence efficacy (herbicidal activity),[4]; Dosage 80 g/ha,90%
same,VIOTR pre-emergence efficacy (herbicidal activity),[4]; Dosage 320 g/ha,100%
same,MATIN pre-emergence efficacy (herbicidal activity),[5]; Dosage 80 g/ha,100%
same,MATIN pre-emergence efficacy (herbicidal activity),[5]; Dosage 320 g/ha,100%
same,SETVI pre-emergence efficacy (herbicidal activity),[6]; Dosage 80 g/ha,80%
same,SETVI pre-emergence efficacy (herbicidal activity),[6]; Dosage 320 g/ha,100%
same,STEME pre-emergence efficacy (herbicidal activity),[7]; Dosage 80 g/ha,100%
same,STEME pre-emergence efficacy (herbicidal activity),[7]; Dosage 320 g/ha,100%
same,ECHCG pre-emergence efficacy (herbicidal activity),[8]; Dosage 80 g/ha,100%
same,ECHCG pre-emergence efficacy (herbicidal activity),[8]; Dosage 320 g/ha,100%
same,ABUTH pre-emergence efficacy (herbicidal activity),[9]; Dosage 80 g/ha,100%
same,ABUTH pre-emergence efficacy (herbicidal activity),[9]; Dosage 320 g/ha,100%
same,post-emergence efficacy LOLMU,[10]; 320 g/ha,80%
same,post-emergence efficacy ALOMY,[11]; 320 g/ha,80%
same,post-emergence efficacy VERPE,[12]; 80 g/ha,80%
same,post-emergence efficacy VERPE,[12]; 320 g/ha,90%
same,post-emergence efficacy AMARE,[13]; 80 g/ha,80%
same,post-emergence efficacy AMARE,[13]; 320 g/ha,90%
same,post-emergence efficacy VIOTR,[14]; 80 g/ha,80%
same,post-emergence efficacy VIOTR,[14]; 320 g/ha,90%
same,post-emergence efficacy MATIN,[15],80%
same,post-emergence efficacy STEME,[16]; 320 g/ha,90%
same,post-emergence efficacy ECHCG,[17]; 80 g/ha,80%
same,post-emergence efficacy ECHCG,[17]; 320 g/ha,100%
same,post-emergence efficacy ABUTH,[18]; 320 g/ha,80%
CS(=O)(=O)c1cnc(NC2CCCc3occc32)nc1N (racemic) [compound 13],VERPE pre-emergence efficacy (herbicidal activity),[1]; Dosage 320 g/ha,90%
same,AMARE pre-emergence efficacy (herbicidal activity),[3]; Dosage 320 g/ha,100%
same,VIOTR pre-emergence efficacy (herbicidal activity),[4]; Dosage 320 g/ha,100%
same,CYPES pre-emergence efficacy (herbicidal activity),[19],100%
same,MATIN pre-emergence efficacy (herbicidal activity),[5]; Dosage 320 g/ha,100%
same,post-emergence efficacy VERPE,[12]; 320 g/ha,90%
same,post-emergence efficacy VIOTR,[14]; 320 g/ha,100%
same,post-emergence efficacy STEME,[16]; 320 g/ha,80%
Cc1cc2c(s1)C(Nc1ncc(C(F)(F)F)c(N)n1)CCC2 (racemic) [compound 55],LOLMU pre-emergence efficacy (herbicidal activity),[20],100%
same,ALOMY pre-emergence efficacy (herbicidal activity),[21]; Dosage 80 g/ha,90%
same,ALOMY pre-emergence efficacy (herbicidal activity),[21]; Dosage 320 g/ha,100%
same,VERPE pre-emergence efficacy (herbicidal activity),[1]; Dosage 80 g/ha,100%
same,VERPE pre-emergence efficacy (herbicidal activity),[1]; Dosage 320 g/ha,100%
same,POLCO pre-emergence efficacy (herbicidal activity),[2]; Dosage 320 g/ha,90%
same,AMARE pre-emergence efficacy (herbicidal activity),[3]; Dosage 80 g/ha,100%
same,AMARE pre-emergence efficacy (herbicidal activity),[3]; Dosage 320 g/ha,100%
same,VIOTR pre-emergence efficacy (herbicidal activity),[4]; Dosage 80 g/ha,100%
same,VIOTR pre-emergence efficacy (herbicidal activity),[4]; Dosage 320 g/ha,100%
same,MATIN pre-emergence efficacy (herbicidal activity),[5]; Dosage 80 g/ha,100%
same,MATIN pre-emergence efficacy (herbicidal activity),[5]; Dosage 320 g/ha,100%
same,SETVI pre-emergence efficacy (herbicidal activity),[6]; Dosage 80 g/ha,100%
same,SETVI pre-emergence efficacy (herbicidal activity),[6]; Dosage 320 g/ha,100%
same,STEME pre-emergence efficacy (herbicidal activity),[7]; Dosage 80 g/ha,100%
same,STEME pre-emergence efficacy (herbicidal activity),[7]; Dosage 320 g/ha,100%
same,ECHCG pre-emergence efficacy (herbicidal activity),[8]; Dosage 80 g/ha,100%
same,ECHCG pre-emergence efficacy (herbicidal activity),[8]; Dosage 320 g/ha,100%
same,AVEFA pre-emergence efficacy (herbicidal activity),[22],100%
same,ABUTH pre-emergence efficacy (herbicidal activity),[9]; Dosage 80 g/ha,100%
same,ABUTH pre-emergence efficacy (herbicidal activity),[9]; Dosage 320 g/ha,100%
same,logP (HCOOH),[23],"oily; logP (HCOOH): 2.46; 1H NMR (CDCl3, 400 MHZ, δ in ppm): 1.85-2.00 (m, 3H,"
same,post-emergence efficacy LOLMU,[10]; 80 g/ha,80%
same,post-emergence efficacy LOLMU,[10]; 320 g/ha,90%
same,post-emergence efficacy ALOMY,[11]; 80 g/ha,90%
same,post-emergence efficacy ALOMY,[11]; 320 g/ha,90%
same,post-emergence efficacy VERPE,[12]; 80 g/ha,90%
same,post-emergence efficacy VERPE,[12]; 320 g/ha,100%
same,post-emergence efficacy POLCO,[24]; 80 g/ha,90%
same,post-emergence efficacy POLCO,[24]; 320 g/ha,90%
same,post-emergence efficacy PHBPU,[25]; 80 g/ha,100%
same,post-emergence efficacy PHBPU,[25]; 320 g/ha,100%
same,post-emergence efficacy AMARE,[13]; 80 g/ha,90%
same,post-emergence efficacy AMARE,[13]; 320 g/ha,100%
same,post-emergence efficacy VIOTR,[14]; 80 g/ha,90%
same,post-emergence efficacy VIOTR,[14]; 320 g/ha,100%
same,post-emergence efficacy SETVI,[26]; 80 g/ha,90%
same,post-emergence efficacy SETVI,[26]; 320 g/ha,90%
same,post-emergence efficacy STEME,[16]; 80 g/ha,100%
same,post-emergence efficacy STEME,[16]; 320 g/ha,100%
same,post-emergence efficacy ECHCG,[17]; 80 g/ha,100%
same,post-emergence efficacy ECHCG,[17]; 320 g/ha,100%
same,post-emergence efficacy ABUTH,[18]; 80 g/ha,90%
same,post-emergence efficacy ABUTH,[18]; 320 g/ha,90%
C/C(=N\OC(C)C)c1cnc(NC2CCCc3sc(C)cc32)nc1N (racemic) [compound 288],LOLMU pre-emergence efficacy (herbicidal activity),[20],100%
same,ALOMY pre-emergence efficacy (herbicidal activity),[21]; Dosage 320 g/ha,80%
same,VERPE pre-emergence efficacy (herbicidal activity),[1]; Dosage 80 g/ha,100%
same,VERPE pre-emergence efficacy (herbicidal activity),[1]; Dosage 320 g/ha,100%
same,POLCO pre-emergence efficacy (herbicidal activity),[2]; Dosage 80 g/ha,80%
same,POLCO pre-emergence efficacy (herbicidal activity),[2]; Dosage 320 g/ha,100%
same,AMARE pre-emergence efficacy (herbicidal activity),[3]; Dosage 320 g/ha,100%
same,VIOTR pre-emergence efficacy (herbicidal activity),[4]; Dosage 80 g/ha,70%
same,VIOTR pre-emergence efficacy (herbicidal activity),[4]; Dosage 320 g/ha,100%
same,MATIN pre-emergence efficacy (herbicidal activity),[5]; Dosage 80 g/ha,100%
same,MATIN pre-emergence efficacy (herbicidal activity),[5]; Dosage 320 g/ha,100%
same,SETVI pre-emergence efficacy (herbicidal activity),[6]; Dosage 320 g/ha,100%
same,STEME pre-emergence efficacy (herbicidal activity),[7]; Dosage 80 g/ha,100%
same,STEME pre-emergence efficacy (herbicidal activity),[7]; Dosage 320 g/ha,100%
same,ECHCG pre-emergence efficacy (herbicidal activity),[8]; Dosage 320 g/ha,100%
same,ABUTH pre-emergence efficacy (herbicidal activity),[9]; Dosage 320 g/ha,70%
same,post-emergence efficacy LOLMU,[10]; 320 g/ha,60%
same,post-emergence efficacy ALOMY,[11]; 320 g/ha,70%
same,post-emergence efficacy VERPE,[12]; 320 g/ha,100%
same,post-emergence efficacy POLCO,[24]; 320 g/ha,70%
same,post-emergence efficacy PHBPU,[25]; 320 g/ha,70%
same,post-emergence efficacy AMARE,[13]; 320 g/ha,90%
same,post-emergence efficacy VIOTR,[14]; 80 g/ha,70%
same,post-emergence efficacy VIOTR,[14]; 320 g/ha,90%
same,post-emergence efficacy MATIN,[15],90%
same,post-emergence efficacy STEME,[16]; 320 g/ha,80%
same,post-emergence efficacy ABUTH,[18]; 320 g/ha,90%
Cc1cc2c(s1)CCCC2Nc1nc(N)c(Br)c(C(C)(C)F)n1 (racemic) [compound 307],POLCO pre-emergence efficacy (herbicidal activity),[2]; Dosage 320 g/ha,70%
same,VIOTR pre-emergence efficacy (herbicidal activity),[4]; Dosage 320 g/ha,100%
same,CYPES pre-emergence efficacy (herbicidal activity),[19],60%
same,MATIN pre-emergence efficacy (herbicidal activity),[5]; Dosage 320 g/ha,50%
